Data reported in patent publication US9765105B2, “Macrolide compound” (Pulike Biological Engineering, Inc., priority 2013, dated 2017).

How the values were obtained:
Assay in all cases: in vitro susceptibility, MIC by mini broth dilution
Assay type in all cases: cell-based
[1] = tested on: Actinobacillus pleuropneumoniae CVCC262; settings: strain CVCC262
Procedure, shortened: (§1)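 NCCLS-based mini broth dilution; inoculum from twice-streaked 35° C/20 h cultures, 1:200 in broth; compound two-fold series in DMSO, 11 steps, duplicates.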

[2] = tested on: Pasteurella multocida CVCC399; settings: strain CVCC399
Procedure, shortened: as §1

[3] = tested on: Haemophilus parasuis
Procedure, shortened: as §1

[4] = tested on: Streptococcus equines CVCC556; settings: strain CVCC556
Procedure, shortened: as §1

[5] = tested on: Staphylococcus aureus CVCC26003; settings: strain CVCC26003
Procedure, shortened: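 S. aureus CVCC26003 was revived and subcultured twice, 20 h each at 35° C, on solid medium, then diluted 1:200 in CAMHB liquid medium. Compounds received an 11-step two-fold DMSO dilution in parallel duplicate rows. MIC was read by mini broth dilution per NCCLS guidance.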

MIC values, Actinobacillus pleuropneumoniae CVCC262 [1] [ug/mi]	MIC values, Pasteurella multocida CVCC399 [2] [ug/mi]	MIC values, Haemophilus parasuis [3]	MIC values, Streptococcus equines CVCC556 [4]	MIC values, Staphylococcus aureus CVCC26003 [5]	SMILES
32	0.5	≦0.25 ug/mi	0.5 ug/mi	0.5 ug/mi	CC[C@H]1OC(=O)[C@H](C)[C@@H](O[C@H]2C[C@@](C)(OC)[C@](O)(CNCC(O)c3ccccc3)[C@H](C)O2)[C@H](C)[C@@H](O[C@@H]2O[C@H](C)C[C@H](N(C)C)[C@H]2O)[C@](C)(O)C[C@@H](C)NC[C@H](C)[C@@H](O)[C@]1(C)O (stereo partly drawn) [syzx-52, (2R,3S,4R,5S,8R,10R,11R,12S,13S,14R)-13-[(2,6-dideoxy-3-C-methyl-3-O-methyl-4-C-[(2-hydroxy-2-phenyl-ethylamino)-methyl]-α-L-ribopyranosyl)oxy]-2-ethyl-3,4,10-trihydroxy-3,5,8,10,12,14-hexamethyl-11-[[3,4,6-trideoxy-3-(dimethylamino)-β-D-xylo-hexopyranosy]oxy]-1-oxa-7-azacyclopentadecan-15-one]
2	8	2 ug/mi	0.25 ug/mi	4 ug/mi	C=CCN(CC=C)C[C@]1(O)[C@H](C)O[C@@H](O[C@H]2[C@H](C)[C@@H](O[C@@H]3O[C@H](C)C[C@H](N(C)C)[C@H]3O)[C@](C)(O)C[C@@H](C)N(CCC)C[C@H](C)[C@@H](O)[C@](C)(O)[C@@H](CC)OC(=O)[C@@H]2C)C[C@@]1(C)OC [syzx-214]
2	0.25	≦0.25 ug/mi	≦0.25 ug/mi	≦0.25 ug/mi	CC[C@H]1OC(=O)[C@H](C)[C@@H](O[C@H]2C[C@@](C)(OC)[C@](O)(C=NNc3ccc(F)cc3)[C@H](C)O2)[C@H](C)[C@@H](O[C@@H]2O[C@H](C)C[C@H](N(C)C)[C@H]2O)[C@](C)(O)C[C@@H](C)NC[C@H](C)[C@@H](O)[C@]1(C)O [syzx-81, (2R,3S,4R,5S,8R,10R,11R,12S,13S,14R)-13-[(2,6-dideoxy-3-C-methyl-3-O-methyl-4-C-[(4-fluoro-phenylhydrazono)-methyl]-α-L-ribopyranosyl)oxy]-2-ethyl-3,4,10-trihydroxy-3,5,8,10,12,14-hexamethyl-11-[[3,4,6-trideoxy-3-(dimethylamino)-β-D-xylo-hexopyranosy]oxy]-1-oxa-7-azacyclopentadecan-15-one]
0.5	1	0.25 ug/mi	0.25 ug/mi	0.25 ug/mi	CCCN1CC(C)C(O)C(C)(O)C(CC)OC(=O)C(C)C(OC2CC(C)(OC)C(O)(CNCCN3CCCC3)C(C)O2)C(C)C(OC2OC(C)CC(N(C)C)C2O)C(C)(O)CC1C (stereo not shown) [syzx-190]
16	1	0.25 ug/mi	≦0.25 ug/mi	1 ug/mi	CC[C@H]1OC(=O)[C@H](C)[C@@H](O[C@H]2C[C@@](C)(OC)[C@](O)(CNCc3cccc(N)c3)[C@H](C)O2)[C@H](C)[C@@H](O[C@@H]2O[C@H](C)C[C@H](N(C)C)[C@H]2O)[C@](C)(O)C[C@@H](C)NC[C@H](C)[C@@H](O)[C@]1(C)O [syzx-72, (2R,3S,4R,5S,8R,10R,11R,12S,13S,14R)-13-[(2,6-dideoxy-3-C-methyl-3-O-methyl-4-C-[(3-aminobenzyl-amino)-methyl]-α-L-ribopyranosyl)oxy]-2-ethyl-3,4,10-trihydroxy-3,5,8,10,12,14-hexamethyl-11-[[3,4,6-trideoxy-3-(dimethylamino)-β-D-xylo-hexopyranosy]oxy]-1-oxa-7-azacyclopentadecan-15-one]
